{"source": "patent US20240075002A1", "about": "“CREATINE COMPOSITION AND METHODS OF USING SAME” (NanoChem Solutions, Inc, priority 2022, published 2024)", "assay": "pH of the spray dried powder", "type": "physicochemical", "method": "In one exemplary embodiment, an aqueous solution of creatine sodium sulfate can be produced by dissolving about 72.96 grams of sodium hydrogen sulfate in about 811.86 grams of deionized water. The solution can be heated to about 145° F. and is maintained throughout the reaction. When the temperature of the sodium hydrogen sulfate solution reaches about 145° F., about 90.63 grams of creatine monohydrate can be added to the solution whereby the heat is maintained at about 145° F. and the mixture mixes with standard agitation for approximately 1 hour. After the hour, the solution is immediately piped to the spray dryer whereby it is spray dried into a powder with a total water of 3-7% by weight and with a water activity of less than 0.4. The pH of the spray dried powder is approximately 1.7. The mesh size of the spray-dried, stable, soluble sodium hydrogen sulfate powder is approximately 40-200 mesh, but can be adjusted depending on the requirements of the customer or desired end application.\nIn another exemplary embodiment, an aqueous solution of creatine potassium sulfate can be produced by dissolving about 109.53 grams of potassium hydrogen sulfate in about 806.68 grams of deionized water. The solution is can be heated to about 145° F. and is maintained throughout the reaction. […]", "data": [{"smiles": "CN(CC(=O)O)C(=N)N.O=S(=O)([O-])[O-].[K+].[K+]", "note": "[creatine potassium sulfate]", "values": [{"measurement": "pH of the spray dried powder", "value": "approximately 1.7"}]}, {"smiles": "CN(CC(=O)O)C(=N)N.O=S(=O)([O-])[O-].[Na+].[Na+]", "note": "[creatine sodium sulfate]", "values": [{"measurement": "pH of the spray dried powder", "value": "approximately 1.7"}]}]}
